According to patent US11319315B2, “Cyclohexyl acid triazole azoles as LPA antagonists” (BRISTOL-MYERS SQUIBB COMPANY, priority 2017, dated 2022):
Read-outs that look alike come from different tables or passages of the source.

Target: T1, human LPA1 (Homo sapiens, UniProt Q92633)
T1 construct: expressed in transfected cells; host or cells: Chinese hamster ovary (CHO) cells
Test: LPA1 functional antagonist assay (LPA-induced calcium flux in CHO cells overexpressing human LPA1)
Type: cell-based
Conditions: read-out: hLPA1 IC50
Outline: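 Calcium flux was triggered by 10 nM LPA after 20 min room-temperature compound pre-incubation (final 0.08 nM to 5 μM, 0.5% DMSO) in human LPA1-overexpressing CHO cells carrying calcium dye. Buffer: HBSS with Ca/Mg, 20 mM HEPES, 0.1% fatty-acid-free BSA; IC50s from 4-parameter logistic fits.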

[1] = inhibition of calcium flux induced by 10 nM LPA, CHO cells overexpressing human LPA1

T1 sequence (Q92633 whole entry): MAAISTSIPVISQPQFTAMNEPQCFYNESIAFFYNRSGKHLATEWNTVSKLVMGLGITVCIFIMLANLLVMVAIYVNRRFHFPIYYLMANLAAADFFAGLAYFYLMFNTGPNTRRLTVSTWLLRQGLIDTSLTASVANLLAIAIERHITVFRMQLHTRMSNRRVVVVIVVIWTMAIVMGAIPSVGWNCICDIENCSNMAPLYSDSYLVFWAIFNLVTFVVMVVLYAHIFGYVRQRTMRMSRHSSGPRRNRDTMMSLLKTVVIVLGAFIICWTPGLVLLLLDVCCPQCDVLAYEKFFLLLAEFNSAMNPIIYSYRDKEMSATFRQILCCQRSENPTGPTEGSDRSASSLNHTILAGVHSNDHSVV

Compound | IC50 [1] | IC50
C=CCC(C)c1nc(NCc2c(-c3ccc(O[C@H]4CCC[C@H](C(=O)O)C4)c(C)n3)nnn2C)no1 (stereo partly drawn) [Example 202] | 8.4 nM | –
Cc1nc(-c2nnn(C)c2CNc2noc(CCC(C)C)n2)c(F)cc1O[C@H]1CCC[C@H](C(=O)O)C1 [Example 281, (1S,3S)-3-((5-fluoro-6-(5-(((5-isopentyl-1,2,4-oxadiazol-3-yl)amino)methyl)-1-methyl-1H-1,2,3-triazol-4-yl)-2-methylpyridin-3-yl)oxy)cyclohexane-1-carboxylic acid] | 67 nM | –
Cc1nc(-c2nnn(C)c2Cc2noc(CC3CCC3)n2)ccc1O[C@H]1CCC[C@H](C(=O)O)C1 [Example 236, (1S,3S)-3-((6-(5-((5-(cyclobutyl-methyl)-1,2,4-oxadiazol-3-yl)methyl)-1-methyl-1H-1,2,3-triazol-4-yl)-2-methylpyridin-3-yl)oxy)cyclohexane-1-carboxylic acid] | 28 nM | –
Cc1nc(-c2nnn(C)c2CNc2nc(-c3ccccc3)c(F)s2)ccc1O[C@H]1CCC[C@H](C(=O)O)C1 [Example 21, (1 S,3 S)-3-((6-(5-(((5-fluoro-4-phenylthiazol-2-yl)amino)methyl)-1-methyl-1H-1,2,3-triazol-4-yl)-2-methylpyridin-3-yl)oxy)cyclohexane-1-carboxylic acid] | 18 nM | –
CCOCCc1nc(NCc2c(-c3ccc(O[C@H]4CCC[C@H](C(=O)O)C4)c(C)n3)nnn2C)no1 [Example 213, (1S,3S)-3-((6-(5-(((5-(2-ethoxy-ethyl)-1,2,4-oxadiazol-3-yl)amino)methyl)-1-methyl-1H-1,2,3-triazol-4-yl)-2-methylpyridin-3-yl)oxy)cyclohexane-1-carboxylic acid] | 98 nM | –
Cc1nc(-c2nnn(C)c2Cn2nnc(NCc3ccccc3)n2)ccc1O[C@H]1CCC[C@H](C(=O)O)C1 [Example 368, (1S,3S)-3-((6-(5-((5-(benzylamino)-2H-tetrazol-2-yl)methyl)-1-methyl-1H-1,2,3-triazol-4-yl)-2-methyl-pyridin-3-yl)oxy)cyclohexane-1-carboxylic acid] | – | 1020 nM
CC[C@@H](OC)c1nc(NCc2c(-c3ccc(O[C@H]4CCC[C@H](C(=O)O)C4)c(C)n3)nnn2C)no1 (single isomer, unassigned) [Example 216] | 121 nM | –
Cc1nc(-c2nnn(C)c2CNc2nnn(-c3ccccc3)n2)ccc1O[C@H]1CCC[C@H](C(=O)O)C1 [Example 389, (1S,3S)-3-((2-methyl-6-(1-methyl-5-(((2-phenyl-2H-tetrazol-5-yl)amino)methyl)-1H-1,2,3-triazol-4-yl)pyridin-3-yl)oxy)cyclohexane-1-carboxylic acid] | – | 84 nM
Cc1nc(-c2nnn(C)c2CNc2noc(C(C)C)n2)ccc1O[C@H]1CCC[C@H](C(=O)O)C1 [Example 174] | 223 nM | –
Cc1nc(-c2nnn(C)c2Cn2nnc(C3CCOCC3)n2)ccc1O[C@H]1CCC[C@H](C(=O)O)C1 [Example 308, (1S,3S)-3-{[2-methyl-6-(1-methyl-5-{[5-(oxan-4-yl)-2H-1,2,3,4-tetrazol-2-yl]methyl}-1H-1,2,3-triazol-4-yl)pyridin-3-yl]oxy}cyclohexane-1-carboxylic acid] | 714 nM | –
CCCc1nsc(NCc2c(-c3ccc(O[C@H]4CCC[C@H](C(=O)O)C4)c(CC)n3)nnn2C)n1 [Example 399, (1S,3S)-3-((2-ethyl-6-(1-methyl-5-(((3-propyl-1,2,4-thiadiazol-5-yl)amino)methyl)-1H-1,2,3-triazol-4-yl)pyridin-3-yl)oxy)cyclohexane-1-carboxylic acid] | – | 73 nM
CCCc1nnn(Cc2c(-c3ccc(O[C@H]4CCC[C@H](C(=O)O)C4)c(C)n3)nnn2C)n1 [Example 113] | 30 nM | –
Cc1nc(-c2nnn(C)c2CNc2nnc(C(C)C)s2)ccc1O[C@H]1CCC[C@H](C(=O)O)C1 [Example 122] | 555 nM | –
Cc1nc(-c2nnn(C)c2Cn2nncc2CC2CC2)ccc1O[C@H]1CCC[C@H](C(=O)O)C1 [Example 263, (1S,3S)-3-((6-(5-((5-(cyclopropyl-methyl)-1H-1,2,3-triazol-1-yl)-methyl)-1-methyl-1H-1,2,3-triazol-4-yl)-2-methylpyridin-3-yl)oxy)-cyclohexane-1-carboxylic acid] | 41 nM | –
Cc1nc(-c2nnn(C)c2Cn2nnc(OCc3ccccc3)n2)ccc1O[C@H]1CCC[C@H](C(=O)O)C1 [Example 342, (1S,3S)-3-{[6-(5-{[5-(benzyloxy)-2H-1,2,3,4-tetrazol-2-yl]methyl}-1-methyl-1H-1,2,3-triazol-4-yl)-2-methylpyridin-3-yl]oxy}cyclo-hexane-1-carboxylic acid] | 11 nM | –
Cc1nc(-c2nnn(C)c2CNc2noc(C3CC34CC4)n2)ccc1O[C@H]1CCC[C@H](C(=O)O)C1 (stereo partly drawn) [Example 205] | 24 nM | –
Cc1nc(-c2nnn(C)c2Cn2nnnc2Cc2ccccc2)ccc1O[C@H]1CCC[C@H](C(=O)O)C1 [Example 110] | 207 nM | –

Second part, the molecule after the results:

IC50 [1] | IC50 | Compound
531 nM | – | CCCc1nnn(Cc2c(-c3ccc(O[C@H]4CCC[C@H](C(=O)O)C4)cn3)nnn2C)n1 [Example 252, (1S,3S)-3-((6-(1-methyl-5-((5-propyl-2H-tetrazol-2-yl)methyl)-1H-1,2,3-triazol-4-yl)pyridin-3-yl)oxy)cyclohexane-1-carboxylic acid]
613 nM | – | CC(C)c1nc(NCc2c(-c3ccc(O[C@H]4CCC[C@H](C(=O)O)C4)cn3)nnn2C)no1 [Example 293, (1S,3S)-3-((6-(5-(((5-isopropyl-1,2,4-oxadiazol-3-yl)amino)methyl)-1-methyl-1H-1,2,3-triazol-4-yl)pyridin-3-yl)oxy)cyclohexane-1-carboxylic acid]
297 nM | – | CCCn1ncc(NCc2c(-c3ccc(O[C@H]4CCC[C@H](C(=O)O)C4)c(C)n3)nnn2C)n1 [Example 29]
136 nM | – | Cc1nc(-c2nnn(C)c2CNc2nnc(CC3CC3)o2)ccc1O[C@H]1CCC[C@H](C(=O)O)C1 [Example 56]
46.1 nM | – | Cc1nc(-c2nnn(C)c2CNc2noc(C3CC(F)(F)C3)n2)ccc1O[C@H]1CCC[C@H](C(=O)O)C1 [Example 153]
246 nM | – | Cc1nc(-c2nnn(C)c2CNc2noc(CCOC(C)C)n2)ccc1O[C@H]1CCC[C@H](C(=O)O)C1 [Example 214, (1S,3S)-3-((6-(5-(((5-(2-isopro-poxyethyl)-1,2,4-oxadiazol-3-yl)amino)methyl)-1-methyl-1H-1,2,3-triazol-4-yl)-2-methylpyridin-3-yl)oxy)cyclohexane-1-carboxylic acid]
8 nM | – | CCCCc1nc(Cc2c(-c3ccc(O[C@H]4CCC[C@H](C(=O)O)C4)c(C)n3)nnn2C)no1 [Example 233, (1S,3S)-3-((6-(5-((5-butyl-1,2,4-oxadiazol-3-yl)methyl)-1-methyl-1H-1,2,3-triazol-4-yl)-2-methylpyridin-3-yl)oxy)cyclohexane-1-carboxylic acid]
14 nM | – | Cc1nc(-c2nnn(C)c2Cn2ncc(CC3CC3)n2)ccc1O[C@H]1CCC[C@H](C(=O)O)C1 [Example 264, (1S,3S)-3-((6-(5-((4-(cyclopropyl-methyl)-2H-1,2,3-triazol-2-yl)methyl)-1-methyl-1H-1,2,3-triazol-4-yl)-2-methylpyridin-3-yl)oxy)cyclohexane-1-carboxylic acid]
10 nM | – | Cc1nc(-c2nnn(C)c2CNc2cnn(-c3ccccc3)n2)ccc1O[C@H]1CCC[C@H](C(=O)O)C1 [Example 32]
42 nM | – | CCCC(C)(C)c1nc(NCc2c(-c3ccc(O[C@H]4CCC[C@H](C(=O)O)C4)c(C)n3)nnn2C)no1 [Example 197]
